US20250255958A1, “VIRUS-FREE CRISPR CAR NATURAL KILLER CELLS” (Wisconsin Alumni Research Foundation, priority 2024, published 2025)
“And” between values parts separate entries of the source, which are not always exact repeats. Equal values may be shown once.

Columns and labels:
[1] = molecular target: T1, DNA-dependent protein kinase (DNA-PK) (Homo sapiens, UniProt P78527); format: cell-based
T1 construct: NK cells were nucleofected on day 4 with the RNP complex and dsDNA, and incubated with M3814 at various concentrations; endogenous in cells; host or cells: primary peripheral-blood NK cells
Experimental: Nucleofection: NK-cells were nucleofected on day 4, unless otherwise described for optimization experiments. Post-nucleofection recovery medium (Complete NK MACS® medium (Miltenyi) with 100 IU/mL IL-2 (Peprotech) and 2 ng/mL IL-15 (Peprotech)+/−0.6 uM M3814 (Selleck Chem)) was prepared, with M3814 added at 1.2× the working concentration to account for future dilution. For M3814 related optimization experiments, multiple aliquots of post-recovery medium were prepared with a corresponding concentration of M3814. 150 μL of M3814 recovery medium was plated into individual wells of a 96-well round bottom plate for each replicate and set aside in the incubator. PB-NK cells were harvested and counted using the Countess® II FL Automated Cell Counter (Thermo Fisher Scientific) with 0.4% Trypan Blue viability stain (Thermo Fisher Scientific). 5e5 cells were aliquoted into individual 1.5 mL Eppendorf Tubes® for each nucleofection replicate. While the RNP complexes incubated, the cells were pelleted at 100 g for 10 minutes, and 3 μg (1.5 μL) of dsDNA templates were aliquoted into PCR tubes for each replicate. Following incubation, the RNP complexes were added to the dsDNA templates and were allowed to incubate for 3-5 minutes at room temperature. Cell pellets were resuspended in P3 buffer with 22% supplement (Lonza), and combined with the RNP+dsDNA mixture, for a total volume of […]. Samples were added to the 24 μL reaction cuvettes (Lonza) and were nucleofected using the EH-100 program (Lonza Amaxa™ 4D-Nucleofector®), unless specified otherwise for optimization experiments. Immediately after nucleofection, 100 μL of pre-warmed recovery medium (no M3814) was added to each of the cuvette wells, and samples were rested at 37° C. for 15 minutes. Finally, samples were transferred from the cuvette to the 96-well plate containing pre-warmed recovery medium with M3814. After 24 hours, nucleofected NK cells were combined with irradiated K562-mb15-41BBL (100 Gy) at a 1:2 ratio in complete NK MACS medium with 100 IU/mL IL-2 and 2 ng/mL IL-15.
NK cells were nucleofected on day 4 with the RNP complex and dsDNA, and incubated with M3814 at various concentrations. Nucleofected cells were expanded for one week and assayed by flow cytometry for NKG2A knock-out and transgene expression.

human genome = assay: Genome-wide off-target analysis by CHANGE-seq; format: biochemical
Experimental: Off-target analysis via genome wide CHANGE-seq: The Gentra® Puregene® kit (Qiagen, Germantown, MD) was used to extract genomic DNA from unedited primary NK cells per the manufacturer's instructions. Genomic analysis was performed by CHANGE-Seq as described previously in the art. In short, genomic DNA underwent tagmentation with a custom Tn5-transposome, and was gap repaired with HiFi HotStart Uracil+ Ready Mix (Kapa Biosystems, Wilmington, MA). USER enzyme (NEB, Ipswich, MA) and T4 polynucleotide was then used to treat the gap-repaired DNA. DNA circularization was performed using T4 DNA ligase (NEB, Ipswich, MA), followed by treatment with a mixture of exonucleases to remove residual linear DNA. In vitro cleavage reactions were performed on the circularized DNA using SpCas9 protein (NEB, Ipswich, MA) and KLRC1 sgRNA. Cleaved products were incubated with proteinase K (NEB, Ipswich, MA), A-tailed, ligated with a hairpin adapter (NEB, Ipswich, MA), and treated with USER enzyme (NEB, Ipswich, MA). Products were amplified by PCR with the Kapa HiFi polymerase (Kapa Biosystems, Wilmington, MA), and libraries were quantified by qPCR (Kapa Biosystems, Wilmington, MA). Libraries were sequenced with 150 bp paired-end reads on the Illumina NextSeq2000 instrument. CHANGE-seq data analyses were performed as described previously.

NKG2A = settings: Huang et al.; cited from earlier work
KLRC1 gene = assay: Indel formation by NGS after Cas9 RNP nucleofection of NK-92 cells; format: cell-based, human; settings: SpCas9 RNP, NGS after two weeks of culture, exon 3
Experimental: On-target editing analysis via Next Generation Sequencing: Genomic DNA was extracted and indel formation was analyzed via next generation sequencing (Illumina) as previously described in the art. Briefly, edited amplicons were amplified and purified using genomic PCR and SPRI cleanup, respectively. A second PCR was performed with indexing primers to attach unique dual identifiers (Illumina®) to the amplicons. After a second SPRI cleanup, samples were combined and run on the Illumina® MiniSeq™ per the manufacturer's instructions and analyzed using the CRISPR RGEN software.
The editing strategy to improve NK potency against solid tumors involves knocking out the NKG2A receptor that can inhibit cytotoxicity within solid tumors (FIG. 1A), while simultaneously conferring specificity of cytotoxicity to a target antigen on the cancer. To knock out the NKG2A receptor, three single-guide RNAs (sgRNAs) were designed against several common coding exons in the KLRC1 gene (FIG. 1B). Ribonucleoproteins (RNPs) were generated upon the complexation of these sgRNAs with SpCas9 to generate double-stranded DNA breaks at these targets within KLRC1. NK-92 cells, a human cell line derived from non-hodgkin lymphoma, were nucleofected with RNPs containing one of these sgRNAs, and assessed for insertions or deletions (indels) around the targeted site after two weeks of cell culture. […]

KLRC1 = settings: primary T cells, Bexte et al.; cited from earlier work

| cell expansion after nucleofection [1] | improvement of HDR outcomes [1] | percent of NKG2A− cells [1] | percentage of transgene expression [1] | Molecule | sites having off-target activity near a transcription start site (TSS) (human genome; CHANGE-seq) | sites having off-target nuclease activity within exons (human genome; CHANGE-seq) | CHANGE-seq specificity ratio (human genome; on-target reads divided by sum of total reads) | NKG2A knock-out (NKG2A) | indel frequencies (NKG2A) [%] | indel formation (KLRC1 gene) [%] | indel frequency (KLRC1) |
| --- | --- | --- | --- | --- | --- | --- | --- | --- | --- | --- | --- |
| did not affect cell expansion | two-fold | around 75% | 11.9% and 12.8% | COc1ccc([C@@H](O)c2cc(-c3ncnc4cc(N5CCOCC5)ccc34)c(F)cc2Cl)nn1 [M3814] |  |  |  |  |  |  |  |
|  |  |  |  | GGTCTGAGTAGATTACTCCT(TGG) (guide GGUCUGAGUAGAUUACUCCU; listed as RNA, chemistry not given here) [gRNA1] | 8 | 10 | 0.038 | less than 25% | > 80 | 98 | 58-80% |
